From patent US4716150A, “Synthetic peptides and use thereof in preparing calmodulin antisera” (Vanderbilt University, priority 1985, dated 1987)

Experiments:
intact calmodulin [1] = settings: cited from earlier work
anti-calmodulin serum = settings: one antiserum; vertebrate calmodulin residues 137 to 143; cited from earlier work
intact calmodulin [2] = test: Injection of immunogen into laboratory rabbits to elicit antisera against calmodulin; type: in vivo; settings: merely injecting calmodulin into laboratory rabbits
Source text: Using one of the rabbit antisera, we proceeded to test peptide segments encompasssing the entire calmodulin molecule to locate one or more immunoreactive sites in the protein. See Van Eldik, L. J. and Watterson D. M. "Reproducible Production of Antiserum against Vertebrate Calmodulin and Determination of the Immunoreactive Site" Journal of Biological Chemistry Volume 256 (9), pp. 4205-4210 (1981). Upon completion of these studies we proposed than an immunoreactive site of calmodulin is contained in an 18 residue region (residues 127-144) within the COOH-terminal domain of calmodulin.
However, although the minimal immunoreactive heptapeptide site of calmodulin met both of the above requirements, we were unable to produce anti-calmodulin sera when we injected laboratory rabbits with a synthetic heptapeptide corresponding to the immunoreactive site of the protein. […] Van Eldik, et al. "Elucidation of a Minimal Immunoreactive Site of Vertebrate Calmodulin" (cited above).

Row | Substance | reactivity of the elicited antibodies (intact calmodulin [1]; antibodies from injected rabbits tested against synthetic heptapeptide and intact calmodulin) | antibody response in rabbits (immunogenicity) (intact calmodulin [1]; laboratory rabbits injected with synthetic heptapeptide) | immunoreactivity with anti-calmodulin serum compared with the entire protein (anti-calmodulin serum) | anti-calmodulin serum titer after injection (intact calmodulin [2])
1 | asparagine-tyrosine-glutamic acid-glutamic acid-phenylalanine-valine-glutamine [synthetic heptapeptide] | reacted with the synthetic heptapeptide but not with intact calmodulin | elicited an antibody response | as immunoreactive as the entire 148-residue protein | –
2 | calmodulin | – | – | – | inability to develop an anti-calmodulin serum of useful titer
